From US9999659B2, “Treatments using a peptide and/or vaccine” (AFFIRIS AG, priority 2012, dated 2018)
No end group written: not given here.

System: Balb/c mice
Experiment: Total cholesterol assay in immunized mice
Type: in vivo, mouse
Protocol: The peptides were conjugated via the heterobifunctional linker GMBS (4-Maleimidobutyric acid N-hydroxysuccinimide ester) to KLH (Keyhole Limpet Hemocyanin).
5 Balb/c mice were subcutaneously immunized. Mice had access to food and water ad libitum and were kept under a 12 h light/dark cycle. The age of mice at the beginning of experiments was 8 to 10 weeks.
Mice were injected four times in 2 week intervals with 15 μg of net peptide coupled to KLH and adsorbed to Alhydrogel as adjuvant in a volume of 1 ml in total.
Blood was taken approximately 2 weeks after the final injection.
Total cholesterol was measured with the LabAssay™ Cholesterol Kit (Wako).
For this purpose mice have been immunized with HPLC purified peptides coupled to KLH and formulated with an adjuvant (Alum) as vaccines (Sequence-KLH/Alum). In the first experiment, a direct comparison between the original PCSK9 sequence and the novel sequence […] has been performed. Here, mice have been immunized with irrelevant peptide vaccine (irrelevant peptide-KLH/Alum) as a negative control group, original PCSK9 sequence vaccine ([…]-KLH/Alum) and the novel sequence vaccine ([…]-KLH/Alum). The latter group ([…]-KLH/Alum) has been used not only to compare its functionality of the induced antibodies to the functionality of the antibodies generated using the original PCSK9 sequence vaccine ([…]-KLH/Alum), but also as a bridging group between different experiments.
Subsequently, a second experiment has been performed wherein mice have been immunized with irrelevant peptide as a negative control group and all the three novel sequences […], […] and […], all coupled to KLH and formulated as vaccines. As it has been already mentioned above, the mice immunized with the novel sequence ([…]-KLH/Alum) have been used as a bridging group between the experiments. In fact, the bridging group injected with the novel sequence ([…]-KLH/Alum) is behaving in a similar way in both experiments (FIGS. 5A, 5B, 6A and 6B) and most importantly, all three groups immunized with vaccines containing one of the sequences […], […] or […] behave in a very similar way in terms of reduction of plasma total cholesterol levels (FIGS. 6A and 6B).

Substance | levels of total cholesterol in comparison to the negative control group (FIGS. 5A and 5B, result in words) | % decrease of TC compared to the irrelevant (negative) control group (first experiment, FIG. 5B, mice immunized with Sequence-KLH/Alum) | total cholesterol compared to the group injected with vaccine containing the original PCSK9 sequence SIPWNLERIT (result in words) | total cholesterol compared to the group injected with vaccine containing the original PCSK9 sequence SIPWNLERIT (result in words, listed as SIPWSLERIT)
SIPWSLERIT-KLH/Alum: novel sequence vaccine: peptide SIPWSLERIT (SEQ ID No. 21) coupled to KLH and formulated with adjuvant Alum (also: coupled to KLH, site not given here) | strongly reduce | 35-40% | significant reduction | significantly reduce
SVPWNLERIQ: vaccine containing novel sequence SVPWNLERIQ (SEQ ID No. 60), coupled to KLH and formulated as vaccine (also: coupled to KLH) | – | – | significantly reduce | –
VIPWNLERIL: vaccine containing novel sequence VIPWNLERIL (SEQ ID No. 55), coupled to KLH and formulated as vaccine (also: coupled to KLH) | – | – | significantly reduce | –
